Results from patent publication US12252508B2, “Ginsenoside and anti-inflammatory composition comprising same” (AMOREPACIFIC CORPORATION, priority 2018, dated 2025).
Entries after “also recorded” stand apart in the source; their conditions may differ.

Assays:
Assay type in all cases: cell-based
[1] = system: tumor necrosis factor α (TNF-α); assay: TNF-α secretion by ELISA in LPS-treated RAW 264.7 macrophages; conditions: RAW 264.7, serum-free medium, 1 or 10 μM 2 hours, then 10 ng/mL LPS 6 hours, FIG. 17
Protocol: (§1) RAW 264.7 macrophages were used as in Test Example 2. A serum-free medium without comprising FBS was used for the measurement of the amount of cytokines. After pretreating the cells for 2 hours with each ginsenoside at 1 or 10 μM under the same condition as in Test Example 1 and then treating with 10 ng/mL LPS for 6 hours, only the medium was recovered and the secretion of pro-inflammatory cytokines, tumor necrosis factor α (TNF-α), interleukin 1β (IL-1β) and IL-6, was measured using an enzyme-linked immunosorbent assay kit (Abcam).

[2] = system: interleukin 1β (IL-1β); assay: IL-1β secretion by ELISA in LPS-treated RAW 264.7 macrophages; conditions: RAW 264.7, serum-free medium, 1 or 10 μM 2 hours, then 10 ng/mL LPS 6 hours, FIG. 18
Protocol: as §1

[3] = system: IL-6; assay: IL-6 secretion by ELISA in LPS-treated RAW 264.7 macrophages; conditions: RAW 264.7, serum-free medium, 1 or 10 μM 2 hours, then 10 ng/mL LPS 6 hours, FIG. 19
Protocol: as §1

[4] = system: IL-1β; assay: IL-1β gene expression by qPCR in LPS-treated RAW 264.7 macrophages; conditions: then 10 ng/mL LPS 6 hours
Protocol: (§2) RAW 264.7 macrophages purchased from ATCC were cultured in Dulbecco's modified Eagle's medium (Sigma) supplemented with 10% fetal bovine serum (FBS; HyClone) and 1% penicillin/streptomycin (Sigma) in a 5% CO2 incubator. After pretreating the RAW 264.7 cells with each of the 7 ginsenosides extracted from ginseng seed (GS #01 to GS #06 and GS #10; 10 μM each) for 2 hours, the cells were further treated with 10 ng/mL lipopolysaccharide (LPS; inflammation-induced group, Sigma) for 6 hours. Then, after extracting RNA using a Trizol™ reagent (Thermo Fisher Scientific), cDNA was synthesized using a RevertAid™ first-strand cDNA synthesis kit (Thermo Fisher Scientific). The expression of inflammation-related genes (IL-1β, IL-6 and iNOS) was observed using a CFX96 real-time quantitative PCR (qPCR) system (Bio-Rad).
(§3) RAW 264.7 macrophages were pretreated with ginsenosides Rg1, Rg3 and Rb1 (purchased from Sigma), which are marker compounds of red ginseng, as comparative examples of the present disclosure or the novel ginsenoside GS #10 (isolated from the ginseng seed extract) as an example of the present disclosure at 1 or 10 μM for 2 hours and then further treated with 10 ng/mL lipopolysaccharide (LPS) for 6 hours to induce inflammation. Then, after extracting RNA and synthesizing cDNA in the same manner as in Test Example 1, the expression of inflammation-related genes was observed by qPCR. […]

[5] = system: IL-6; assay: IL-6 gene expression by qPCR in LPS-treated RAW 264.7 macrophages; conditions: then 10 ng/mL LPS 6 hours
Protocol: as §2, §3

[6] = system: iNOS; assay: iNOS gene expression by qPCR in LPS-treated RAW 264.7 macrophages; conditions: then 10 ng/mL LPS 6 hours
Protocol: as §2, §3

[7] = system: inflammation-related genes (IL-1β, IL-6 and iNOS); assay: Overall anti-inflammatory effect from qPCR of inflammation-related genes (Test Example 2); conditions: RAW 264.7; 1 or 10 μM, LPS 10 ng/mL; relative to Rg1; FIGS. 14-16
Protocol: as §2, §3

[8] = system: nitric oxide (NO) production in RAW264.7 macrophages; assay: Nitric oxide (NO) production by Griess reaction in LPS-treated RAW 264.7 macrophages; conditions: 1 or 10 μM 1 hour, then 10 ng/mL LPS 1 hour, FIG. 20
Protocol: RAW 264.7 macrophages were treated with 10 μM L-NAME (NO production inhibitor; control group; Sigma), ginsenosides Rg1, Rg3 and Rb1 (purchased from Sigma), which are marker compounds of red ginseng, as comparative examples of the present disclosure or the novel ginsenoside GS #10 (extracted from ginseng seed) as an example of the present disclosure at 1 or 10 μM for 1 hour, and then treated with 10 ng/mL LPS for 1 hour. The amount of NO produced during 1 hour was measured using the Griess reaction. Briefly, after adding 50 μL of sulfanilamide solution to 50 μL of each ginsenoside sample, the mixture was incubated for 10 minutes at room temperature under protection from light. Then, after adding N-(1-napthyl)ethylenediamine solution (50 μL), the mixture was further incubated for 10 minutes at room temperature under protection from light. The […] of NO was measured at a wavelength of 540 nm using a Tecan Infinite® 200 Pro multiplate reader. Sodium nitrite (NaNO2) was used to create a standard curve.

[9] = system: SH-SY5Y cells; assay: Cytotoxicity, cell viability by CCK-8; conditions: 0.1, 1, 5, 10, 20 and 50 μM, FIG. 21
Protocol: After adding 10 μL of CCK-8 reagent to SH-SY5Y cells (Dojindo, MD, USA) on a 96-well plate and maintaining at 37° C. for 2 hours, absorbance was measured at 450 nm.
Cell viability was represented as the percentage (%) of the absolute optical density of each sample with respect to an untreated sample. The concentrations of the novel ginsenoside GS #10 according to an exemplary embodiment of the present disclosure in the medium for culturing the cells were 0.1, 1, 5, 10, 20 and 50 μM.

| Compound | secretion of TNF-α [1] | secretion of IL-1β [2] | secretion of IL-6 [3] | expression level of the IL-1β gene ([4]; 10 μM pretreatment 2 hours, compared to Compounds 1-6 at the same concentration, FIG. 11) | anti-inflammatory effect (IL-1β expression level) ([4]; 1 or 10 μM for 2 hours, compared to Rg1, Rg3 and Rb1, FIG. 14) | expression level of the IL-6 gene ([5]; 10 μM pretreatment 2 hours, compared to Compounds 1-6 at the same concentration, FIG. 12) | anti-inflammatory effect (IL-6 expression level) ([5]; 1 or 10 μM for 2 hours, compared to Rg1, Rg3 and Rb1, FIG. 15) | expression level of the iNOS gene ([6]; 10 μM pretreatment 2 hours, compared to Compounds 1-6 at the same concentration, FIG. 13) | anti-inflammatory effect (iNOS expression level) ([6]; 1 or 10 μM for 2 hours, compared to Rg1, Rg3 and Rb1, FIG. 16, listed as GS #10) | anti-inflammatory effect superior to that of Rg1 [7] | NO production-inhibiting ability compared to Rg1, Rg3 and Rb1 [8] | NO production ([8]; with increasing dosage) | cytotoxicity (cell viability, % of untreated sample) [9] |
| --- | --- | --- | --- | --- | --- | --- | --- | --- | --- | --- | --- | --- | --- |
| CC(C)=CCC[C@](C)(O[C@@H]1O[C@H](CO)[C@@H](O)[C@H](O)[C@H]1O)[C@H]1CC[C@]2(C)[C@@H]1[C@H](O)C[C@@H]1[C@@]3(C)CC[C@H](O)C(C)(C)[C@@H]3[C@@H](O[C@@H]3O[C@H](CO)[C@@H](O)[C@H](O)[C@H]3O)C[C@]12C [Rg1, ginsenoside Rg1] | decreased | decreased | decreased |  |  |  |  |  |  |  |  |  |  |
| CC(C)=CCC[C@](C)(O)[C@H]1CC[C@]2(C)[C@@H]1[C@H](O)C[C@@H]1[C@@]3(C)CC[C@H](O[C@@H]4O[C@H](CO)[C@@H](O)[C@H](O)[C@H]4O[C@@H]4O[C@H](CO)[C@@H](O)[C@H](O)[C@H]4O)C(C)(C)[C@@H]3CC[C@]12C [Rg3, ginsenoside Rg3] | decreased | decreased | decreased |  |  |  |  |  |  |  |  |  |  |
| CC1(C)C(=O)CC[C@@]2(C)C1[C@@H](O[C@H]1OC(CO)[C@H](O)C(O)C1O[C@H]1OC(CO)[C@H](O)C(O)C1O)C[C@]1(C)C2C[C@@H](O)C2C([C@]3(C)CC[C@H](C(C)(C)O)O3)CC[C@]21C (stereo partly drawn) [Compound 10, (20S,24R)-6-O-β-D-glucopyranosyl(1→2)-β-D-glucopyranoside-dammar-3-one-20,24-epoxy-6a,12b,25-triol] | significant decreased secretion | significant decreased secretion | significant decreased secretion | remarkably suppress | remarkably excellent anti-inflammatory effect | remarkably suppress | remarkably excellent anti-inflammatory effect | remarkably suppress | remarkably excellent anti-inflammatory effect; also recorded: decreased greatly | about 10 times | remarkably superior | decreased | no cytotoxicity |
| CC(C)=CCC[C@](C)(O[C@@H]1O[C@H](CO[C@@H]2O[C@H](CO)[C@@H](O)[C@H](O)[C@H]2O)[C@@H](O)[C@H](O)[C@H]1O)[C@H]1CC[C@]2(C)[C@@H]1[C@H](O)C[C@@H]1[C@@]3(C)CC[C@H](O[C@@H]4O[C@H](CO)[C@@H](O)[C@H](O)[C@H]4O[C@@H]4O[C@H](CO)[C@@H](O)[C@H](O)[C@H]4O)C(C)(C)[C@@H]3CC[C@]12C [Rb1, ginsenoside Rb1] | decreased | decreased | decreased |  |  |  |  |  |  |  |  |  |  |
